From patent US20250073209A1, “COVALENT TARGETING OF RhoA FOR CANCER THERAPY” (The University of Hong Kong, priority 2023, published 2025)

Experiments:
HCT116 cells [1] = test: Flow cytometry cell cycle analysis; assay type: cell-based, human; settings: HCT116, 24 h
Description: HCT116 cells were seeded onto 6-well plates (500,000 cells) and cultured overnight in complete medium at 37° C. with 5% CO2. After treatment with DMSO control or CL16 at the indicated concentration for 24 h, cells were harvested by trypsin digestion, washed with PBS, and fixed in 70% cold ethanol on ice for 30 minutes. The cells were then centrifuged at 250g for 5 min and resuspended in staining buffer (PBS with 0.05% Triton X-100) containing propidium iodide (50 μg/mL) and RNase (100 μg/mL) for 30 min at 37° C. in the dark. The cells were then filtered through a 40 μm strainer and analyzed by flow cytometry. Representative FACS plots were developed to illustrate the gating strategy in studying cell cycle. The NovoCyte Advanteon BVYG analyzer was used to acquire cell events, and the data were processed using NovoExpress software.
The molecular mechanisms of anticancer effects from CL16 were investigated. […] Immunoblotting of cell cycle checkpoint proteins in HCT116 cells underwent CL16 treatment for 24 h.

RhoA = RhoA (Homo sapiens, UniProt P61586); test: Gel-based competitive ABPP (iodoacetamide-rhodamine) on purified RhoA; parameters: purchased ab101594; settings: competition with IA-Rh, dose-dependent experiments; read-out: IC50 of the competitive binding / in vitro RhoA binding
Description: Recombinant human RhoA (0.1 μg; ab101594) was pretreated with cysteine-reactive compounds or DMSO for 1 hour at room temperature, followed by incubation with iodoacetamide-rhodamine (IA-Rh; 1 μM) for 1 hour at room temperature. The reaction was then quenched by boiling in sampling buffer. Samples were subjected to SDS-PAGE to separate proteins bands. In-gel fluorescence intensity was measured with a Chemidoc using setting for Rhodamine. Gel was subsequently stained with silver stain (Pierce) for visualization of protein content and covalent modification. Band intensity was quantified using ImageJ.
CL16 was identified for its strong and specific binding with RhoA in covalent ligand screening experiment by ABPP. ABPP is known as a powerful platform for covalent ligand screening, particularly for the identification of lead compounds targeting new hotspots for therapy. Competitive gel-based activity-based protein profiling (ABPP) experiment was performed on purified RhoA protein for screening its interactions with a library of cysteine-reactive covalent ligands with acrylamide or chloroacetamide warheads. RhoA protein for the first screening and on Rac1 and Cdc42 for the second screening to identify lead compounds with specific binding onto RhoA Cys16. […] The reaction mixture was then resolved by SDS-PAGE and in-gel fluorescence was imaged (FIG. 1A). […]

SW620 spheroid = test: Spheroid formation assay, SW620; assay type: cell-based, human
Description: FIGS. 5A-5B are graphs showing the anticancer effects of CL16 in HT29 (FIG. 5A) and SW620 (FIG. 5B) spheroids. HT29 spheroid or SW620 spheroid were treated with CL16 at the indicated concentrations for 10 days. The spheroids were then imaged by microscope using 10× objective and the size was determined by ImageJ.
5,000 cells of HT29 and SW620 cells were inoculated in serum-free DMEM/F12 medium with 20 ng/mL […] growth factor (EGF) in 96-well round-bottom low-affinity plate (Nunc). Medium was supplemented with CL16 or Rhosin when spheroid has formed an opaque core. Morphology was recorded under a light microscope with 10× objective.
To further investigate the anticancer effects of CL16, HT29 and SW620 cells were inoculated as spheroids in low-affinity plate with 20 ng/mL EGF, and incubated with different concentrations of CL16 or Rhosin.

HCT116 cells [2] = test: Apoptosis assay with Caspase-3/7 Green Detection Reagent; assay type: cell-based, human; settings: HCT116, 24 h
Description: HCT116 cells were seeded onto a poly-D-lysine coated Ibidi 8-well chamber slide (20,000 cells) and cultured overnight in complete medium at 37° C. with 5% CO2. The cells were treated with DMSO control, Rhosin or CL16 at the indicated concentration along with 5 μM of CellEvent™ Caspase- 3/7 green in serum-free medium for 24 h. Prior to imaging, the medium was exchanged for Hanks' Balanced Salt Solution (HBSS). Confocal fluorescence microscopy was performed using a Zeiss laser scanning microscope 880 with a 20× water-immersion objective lens and ZEN 2.3 (Black Version) software (Carl Zeiss). CellEvent™ Caspase- 3/7 green was excited by a 488 nm diode laser and emission was collected on a META detector between 490 and 525 nm. Image analysis was performed on ImageJ where the number of cells expressing fluorescence within the field was counted against the total number of cells to report the percentage of apoptotic cells. The average percentage was calculated from 3 separate images from the same well.
The effects of CL16 treatment on cell cycle checkpoint proteins were investigated with immunoblotting of the cell cycle checkpoint proteins in SW620 and HT29 cells after CL16 treatment for 24 h. […] Caspase- 3/7 Green Detection Reagent was used to study apoptosis in HCT116 cells treated with Rhosin by confocal fluorescence imaging. […]

Sequence of RhoA (P61586 whole entry): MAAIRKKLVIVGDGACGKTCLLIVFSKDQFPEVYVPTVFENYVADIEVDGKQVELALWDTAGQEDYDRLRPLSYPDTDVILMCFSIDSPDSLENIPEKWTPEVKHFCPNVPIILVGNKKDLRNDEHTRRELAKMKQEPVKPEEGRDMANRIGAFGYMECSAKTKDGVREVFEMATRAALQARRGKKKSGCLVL

IC50 (RhoA): 0.44 µM
Structure (SMILES): O=C(CCl)N1N=C(c2cc3ccccc3o2)CC1c1ccco1 (centres unmarked) [CL16]
G2 phase cell population (HCT116 cells [1]): significant increase in G2 phase cell population
growth of SW620 spheroids (SW620 spheroid; 20 ng/mL EGF, low-affinity plate): significant inhibitions in the growth
IC50 (SW620 spheroid; Homo sapiens, SW-620, 240 h, 10 days, read-out: cytotoxic IC50 in SW620 spheroids): 4.1 µM
cell apoptosis (HCT116 cells [2]): mediated cell apoptosis
